{"source": "patent US20090093010A1", "about": "“Method of Detecting Kidney Dysfunction” (University of Manitoba, priority 2004, published 2009)", "format_in_all_cases": "biochemical, human", "key": {"[1]": {"system": "protease family responsible for β2-microglobulin cleavage in urine", "test": "Determination of the protease family responsible for β2-microglobulin cleavage (urine spiked with intact β2-microglobulin and protease inhibitors, SELDI-TOF-MS)", "conditions": "urine at pH 5, intact β2-microglobulin 10 mg/L, 37° C.; pepstatin 14.5 μM, Complete-Mini (EDTA-free) 0.2 tablets/mL, EDTA 20 mM", "experimental": "These samples were then analysed by SELDI-TOF-MS immediately (column 1) and after 6 hours of incubation at 37° C. (column 2).\nOne mL of a urine sample from a healthy individual (total protein 110 mg/L, creatinine 18.9 mM, pH 5) and 1 mL of a urine sample from a patient with an acute clinical rejection episode showing the protein peak clusters (total protein 230 mg/L, creatinine 11.6 mM, pH 5) were incubated for 16 hours at 37° C. to degrade existing intact and cleaved β2-m. Four hundred μL of each sample were mixed with sodium acetate pH 5 (final concentration 166 mM) to ensure, stable pH and divided into four portions of 100 μL. Pepstatin (final concentration 14.5 μM), Complete-Mini (EDTA-free) (final concentration 0.2 tablets/mL), EDTA (final concentration 20 mM) or no protease inhibitors were added to each portion. Another 100 μL of each urine sample was brought to pH 6 by adding MES pH 6 (final concentration 166 mM). […] SELDI-TOF-MS analysis was performed immediately and after 1, 2, 4, 6 and 24 hours of incubation at 37° C."}, "[2]": {"system": "serine and/or cysteine proteinases cleaving Y63 and F62 of the β2-microglobulin long chain", "test": "Inhibition of cleavage of Y63 and F62 on the long chain (I1-Y63) of cleaved β2-microglobulin", "conditions": "occurs even at pH 6; EDTA 20 mmol/L", "source_text": "Further confirmed non-tryptic cleavage sites on the long chain occur at F62 and then at S61, resulting in three major forms of long chains with calculated molecular weights of 7358.19 Da (I1-Y63), 7195.01 Da (I1-F62) and 7047.83 Da (I1-S61) (see FIG. 25B). […] In addition, three cleavage sites on the long chain have been identified by μLC-MS/MS (F22, N24 and C25), however, the resulting fragments were not detectable by SELDI-TOF-MS."}, "[3]": {"system": "aspartic proteinase(s) performing initial cleavage of intact urinary β2-microglobulin", "test": "Inhibition of initial cleavage of intact urinary β2-microglobulin in patient urine at pH 4.5 (SELDI-TOF-MS)", "conditions": "patient urine brought to pH 4.5", "experimental": "Pepstatin is a well-established inhibitor of aspartic proteinases. […] Different proteinase-inhibitors were added (Pepstatin and Complete Mini EDTA-free, both from Roche, Switzerland)."}}, "note": "“Also recorded” adds a separate entry of the source. Where a SMILES comes first, the peptide text is derived from it. [ ]: non-standard residue; d: D form. The star is where a group is joined. Sta = CC(C)C[C@H](N)[C@@H](O)CC(=O)O; Isovaleryl = CC(C)CC(=O)*"}
{"smiles": "O=C(O)CN(CCN(CC(=O)O)CC(=O)O)CC(=O)O", "note": "[EDTA]", "values": [{"measurement": "Inhibition of cleavage of intact β2-microglobulin", "setting": "[1]", "result": "not"}, {"measurement": "Inhibition of the cleavage of the two amino acids Y63 and F62 on the long chain", "setting": "[2]", "result": "not"}]}
{"smiles": "CC(C)CC(=O)N[C@H](C(=O)N[C@H](C(=O)N[C@@H](CC(C)C)[C@@H](O)CC(=O)N[C@@H](C)C(=O)N[C@@H](CC(C)C)[C@@H](O)CC(=O)O)C(C)C)C(C)C", "note": "[Pepstatin] (Isovaleryl-VV[Sta]A[Sta]-OH)", "values": [{"measurement": "Inhibition of cleavage of intact β2-microglobulin", "setting": "[1]", "result": "could prevent β2-microglobulin cleavages; also recorded: could be inhibited; also recorded: could inhibit β2-microglobulin cleavage"}, {"measurement": "Inhibition of the cleavage of the two amino acids Y63 and F62 on the long chain", "setting": "[2]", "result": "not"}, {"measurement": "Detectability of the intact form of β2-microglobulin after 6 to 24 hours in urine spiked with proteinase inhibitor", "setting": "[3]", "result": "still detectable in unchanged intensity; also recorded: can be inhibited"}]}
